Values after ≈ are worked out from the molar mass of the structure shown. Active and inactive are the calls of the source.

One test relates to Aspergillus niger. Kind of test: Growth inhibition of Aspergillus niger at 4 mg/ml after 7 days by poisoned-food technique. The class given is functional. The settings on record: 168 h, read-out: GI.
Regarding `Cc1cc(-c2cn(-c3ccccc3)nc2-c2ccc(Br)cc2)n(-c2ccccc2)n1`, the inhibition of growth at 4000 µg/mL was 55.5%.

Take `CC(=O)/C(Br)=C/c1cn(-c2ccccc2)nc1-c1ccc(Br)cc1`: the inhibition of growth at 4000 µg/mL is 55.5%.

For the molecule `COc1ccc(-c2nn(-c3ccc([N+](=O)[O-])cc3)cc2-c2cc(C)nn2-c2ccccc2)cc1`, the inhibition of growth at 4000 µg/mL is 46.6%.

As for `COc1ccc(-c2nn(-c3ccccc3)cc2-c2cc(C)nn2-c2ccccc2)cc1`, the inhibition of growth at 4000 µg/mL came out at 41.1%.

With `CC(=O)/C(Br)=C/c1cn(-c2ccccc2)nc1-c1ccccc1`, the inhibition of growth at 4000 µg/mL stood at 51.1%.

For the molecule `COc1ccc(-c2nn(-c3ccccc3)cc2/C=C(\Br)C(C)=O)cc1`, the inhibition of growth at 4000 µg/mL is 45.5%.

For `OC(Cn1cncn1)(Cn1cncn1)c1ccc(F)cc1F` [FLUCONAZOLE], the inhibition of growth at 4000 µg/mL came to 81.1%.

Regarding `Cc1ccc(-c2nn(-c3ccccc3)cc2-c2cc(C)nn2-c2ccccc2)cc1`, the inhibition of growth at 4000 µg/mL is 44.4%.

Turning to `CC(=O)/C(Br)=C/c1cn(-c2ccc([N+](=O)[O-])cc2)nc1-c1ccccc1`, the inhibition of growth at 4000 µg/mL came out at 51.1%.

As for `CC(=O)/C(Br)=C/c1cn(-c2ccccc2)nc1-c1ccc(F)cc1`, the inhibition of growth at 4000 µg/mL worked out at 53.3%.

For the molecule `Cc1cc(-c2cn(-c3ccccc3)nc2-c2ccc(F)cc2)n(-c2ccccc2)n1`, the inhibition of growth at 4000 µg/mL turned out to be 43.3%.

The test system of the next test is Aspergillus flavus. In words: Growth inhibition of Aspergillus flavus at 4 mg/ml after 7 days by poisoned-food technique. The class given is functional. The settings on record: 168 h, read-out: GI.
As to `Cc1cc(-c2cn(-c3ccccc3)nc2-c2ccc(Br)cc2)n(-c2ccccc2)n1`, the inhibition of growth at 4000 µg/mL is 52.2%.

Regarding `CC(=O)/C(Br)=C/c1cn(-c2ccccc2)nc1-c1ccc(Br)cc1`, the inhibition of growth at 4000 µg/mL came out at 58.8%.

Take `COc1ccc(-c2nn(-c3ccc([N+](=O)[O-])cc3)cc2-c2cc(C)nn2-c2ccccc2)cc1`: the inhibition of growth at 4000 µg/mL came to 44.4%.

For the molecule `COc1ccc(-c2nn(-c3ccccc3)cc2-c2cc(C)nn2-c2ccccc2)cc1`, the inhibition of growth at 4000 µg/mL is 44.4%.

For the molecule `CC(=O)/C(Br)=C/c1cn(-c2ccccc2)nc1-c1ccccc1`, the inhibition of growth at 4000 µg/mL stood at 48.8%.

`COc1ccc(-c2nn(-c3ccccc3)cc2/C=C(\Br)C(C)=O)cc1`: the inhibition of growth at 4000 µg/mL worked out at 44.4%.

Turning to `OC(Cn1cncn1)(Cn1cncn1)c1ccc(F)cc1F` [FLUCONAZOLE], the inhibition of growth at 4000 µg/mL stood at 77.7%.

Regarding `Cc1ccc(-c2nn(-c3ccccc3)cc2-c2cc(C)nn2-c2ccccc2)cc1`, the inhibition of growth at 4000 µg/mL worked out at 45.5%.

For `CC(=O)/C(Br)=C/c1cn(-c2ccc([N+](=O)[O-])cc2)nc1-c1ccccc1`, the inhibition of growth at 4000 µg/mL was 53.3%.

`CC(=O)/C(Br)=C/c1cn(-c2ccccc2)nc1-c1ccc(F)cc1`: the inhibition of growth at 4000 µg/mL came to 55.5%.

Take `Cc1cc(-c2cn(-c3ccccc3)nc2-c2ccc(F)cc2)n(-c2ccccc2)n1`: the inhibition of growth at 4000 µg/mL was 44.4%.

A further test has as its system Bacillus subtilis. In words: Antibacterial activity against Bacillus subtilis MTCC 121 after 24 hr by macrodilution tube method. The class given is functional. Conditions: MTCC 121, 24 h.
For `Cc1cc(-c2cn(-c3ccccc3)nc2-c2ccc(Br)cc2)n(-c2ccccc2)n1`, the MIC amounted to 32 µg/mL (≈ 70.3 µM).

Molecule `CC(=O)/C(Br)=C/c1cn(-c2ccccc2)nc1-c1ccc(Br)cc1` registered an MIC of 64 µg/mL (≈ 143 µM).

In turn, `COc1ccc(-c2nn(-c3ccc([N+](=O)[O-])cc3)cc2-c2cc(C)nn2-c2ccccc2)cc1` yielded an MIC of 128 µg/mL (≈ 284 µM).

In turn, `COc1ccc(-c2nn(-c3ccccc3)cc2-c2cc(C)nn2-c2ccccc2)cc1` gave an MIC of 256 µg/mL (≈ 630 µM).

Take `CC(=O)/C(Br)=C/c1cn(-c2ccccc2)nc1-c1ccccc1`: 128 µg/mL (≈ 349 µM) was the least that counted as inhibitory (MIC).

For `COc1ccc(-c2nn(-c3ccccc3)cc2/C=C(\Br)C(C)=O)cc1`, it took 128 µg/mL (≈ 322 µM) to inhibit growth (MIC).

For `Cc1ccc(-c2nn(-c3ccccc3)cc2-c2cc(C)nn2-c2ccccc2)cc1`, 128 µg/mL (≈ 328 µM) was the least that counted as inhibitory (MIC).

`CC(=O)/C(Br)=C/c1cn(-c2ccc([N+](=O)[O-])cc2)nc1-c1ccccc1` showed an MIC of 128 µg/mL (≈ 310 µM).

`CC(=O)/C(Br)=C/c1cn(-c2ccccc2)nc1-c1ccc(F)cc1` came in with an MIC of 32 µg/mL (≈ 83.1 µM).

The molecule `Cc1cc(-c2cn(-c3ccccc3)nc2-c2ccc(F)cc2)n(-c2ccccc2)n1` displayed an MIC of 128 µg/mL (≈ 325 µM).

A further test relates to Staphylococcus aureus. In words: Antibacterial activity against Staphylococcus aureus MTCC 96 after 24 hr by macrodilution tube method. The class given is functional. The settings on record: MTCC 96, 24 h.
In the case of `Cc1cc(-c2cn(-c3ccccc3)nc2-c2ccc(Br)cc2)n(-c2ccccc2)n1`, the MIC was 64 µg/mL (≈ 141 µM).

`CC(=O)/C(Br)=C/c1cn(-c2ccccc2)nc1-c1ccc(Br)cc1` registered an MIC of 32 µg/mL (≈ 71.7 µM).

Molecule `COc1ccc(-c2nn(-c3ccc([N+](=O)[O-])cc3)cc2-c2cc(C)nn2-c2ccccc2)cc1` yielded an MIC of 256 µg/mL (≈ 567 µM).

Molecule `COc1ccc(-c2nn(-c3ccccc3)cc2-c2cc(C)nn2-c2ccccc2)cc1` gave an MIC of 128 µg/mL (≈ 315 µM).

Take `CC(=O)/C(Br)=C/c1cn(-c2ccccc2)nc1-c1ccccc1`: the lowest concentration to inhibit growth (MIC) was 128 µg/mL (≈ 349 µM).

Take `COc1ccc(-c2nn(-c3ccccc3)cc2/C=C(\Br)C(C)=O)cc1`: the lowest concentration to inhibit growth (MIC) was 128 µg/mL (≈ 322 µM).

`Cc1ccc(-c2nn(-c3ccccc3)cc2-c2cc(C)nn2-c2ccccc2)cc1` showed an MIC of 256 µg/mL (≈ 656 µM).

Regarding `CC(=O)/C(Br)=C/c1cn(-c2ccc([N+](=O)[O-])cc2)nc1-c1ccccc1`, inhibition of growth (MIC) required 64 µg/mL (≈ 155 µM).

On to `CC(=O)/C(Br)=C/c1cn(-c2ccccc2)nc1-c1ccc(F)cc1`, for which the lowest concentration to inhibit growth (MIC) was 32 µg/mL (≈ 83.1 µM).

Molecule `Cc1cc(-c2cn(-c3ccccc3)nc2-c2ccc(F)cc2)n(-c2ccccc2)n1` showed an MIC of 128 µg/mL (≈ 325 µM).

The test system of a further test is Escherichia coli. Kind of test: Antibacterial activity against Escherichia coli MTCC 1652 at 2 mg/ml after 24 hr by agar well diffusion method.
Conditions: not given
The class given is functional, organism-based. On the technique in general: A growth-free zone around the sample is the usual read-out of agar diffusion tests.
On to `Cc1cc(-c2cn(-c3ccccc3)nc2-c2ccc(Br)cc2)n(-c2ccccc2)n1`, for which the result was inactive.

Take `CC(=O)/C(Br)=C/c1cn(-c2ccccc2)nc1-c1ccc(Br)cc1`: the result was inactive.

For `COc1ccc(-c2nn(-c3ccc([N+](=O)[O-])cc3)cc2-c2cc(C)nn2-c2ccccc2)cc1`, the result was inactive.

With `COc1ccc(-c2nn(-c3ccccc3)cc2-c2cc(C)nn2-c2ccccc2)cc1`, the result was inactive.

`CC(=O)/C(Br)=C/c1cn(-c2ccccc2)nc1-c1ccccc1`: the outcome was inactive.

Regarding `COc1ccc(-c2nn(-c3ccccc3)cc2/C=C(\Br)C(C)=O)cc1`, the outcome was inactive.

For `Cc1ccc(-c2nn(-c3ccccc3)cc2-c2cc(C)nn2-c2ccccc2)cc1`, the result was inactive.

Take `CC(=O)/C(Br)=C/c1cn(-c2ccc([N+](=O)[O-])cc2)nc1-c1ccccc1`: the outcome was inactive.

For `CC(=O)/C(Br)=C/c1cn(-c2ccccc2)nc1-c1ccc(F)cc1`, the result was inactive.

With `Cc1cc(-c2cn(-c3ccccc3)nc2-c2ccc(F)cc2)n(-c2ccccc2)n1`, the outcome was inactive.

In a further test the test system is Bacillus subtilis. In words: Antibacterial activity against Bacillus subtilis MTCC 121 at 2 mg/ml after 24 hr by agar well diffusion method. In kind it is functional. Conditions: MTCC 121, 24 h, read-out: DIZ.
For the molecule `Cc1cc(-c2cn(-c3ccccc3)nc2-c2ccc(Br)cc2)n(-c2ccccc2)n1`, the zone of inhibition at 2000 µg/mL was found to be 20.6 mm.

As to `CC(=O)/C(Br)=C/c1cn(-c2ccccc2)nc1-c1ccc(Br)cc1`, the zone of inhibition at 2000 µg/mL is 19.3 mm.

In the case of `COc1ccc(-c2nn(-c3ccc([N+](=O)[O-])cc3)cc2-c2cc(C)nn2-c2ccccc2)cc1`, the zone of inhibition at 2000 µg/mL was found to be 14 mm.

In the case of `COc1ccc(-c2nn(-c3ccccc3)cc2-c2cc(C)nn2-c2ccccc2)cc1`, the zone of inhibition at 2000 µg/mL is 14 mm.

In the case of `CC(=O)/C(Br)=C/c1cn(-c2ccccc2)nc1-c1ccccc1`, the zone of inhibition at 2000 µg/mL was found to be 16.6 mm.

As for `COc1ccc(-c2nn(-c3ccccc3)cc2/C=C(\Br)C(C)=O)cc1`, the zone of inhibition at 2000 µg/mL is 16.3 mm.

With `Cc1ccc(-c2nn(-c3ccccc3)cc2-c2cc(C)nn2-c2ccccc2)cc1`, the zone of inhibition at 2000 µg/mL worked out at 16.3 mm.

For the molecule `CC(=O)/C(Br)=C/c1cn(-c2ccc([N+](=O)[O-])cc2)nc1-c1ccccc1`, the zone of inhibition at 2000 µg/mL was found to be 17.3 mm.

Consider `CC(=O)/C(Br)=C/c1cn(-c2ccccc2)nc1-c1ccc(F)cc1`, for which the zone of inhibition at 2000 µg/mL turned out to be 21.6 mm.

On to `Cc1cc(-c2cn(-c3ccccc3)nc2-c2ccc(F)cc2)n(-c2ccccc2)n1`, for which the zone of inhibition at 2000 µg/mL stood at 16.3 mm.

A further test relates to Staphylococcus aureus. Kind of test: Antibacterial activity against Staphylococcus aureus MTCC 96 at 2 mg/ml after 24 hr by agar well diffusion method. In kind it is functional. The settings on record: MTCC 96, 24 h, read-out: DIZ.
As for `Cc1cc(-c2cn(-c3ccccc3)nc2-c2ccc(Br)cc2)n(-c2ccccc2)n1`, the zone of inhibition at 2000 µg/mL was 19.3 mm.

With `CC(=O)/C(Br)=C/c1cn(-c2ccccc2)nc1-c1ccc(Br)cc1`, the zone of inhibition at 2000 µg/mL stood at 21.3 mm.

As for `COc1ccc(-c2nn(-c3ccc([N+](=O)[O-])cc3)cc2-c2cc(C)nn2-c2ccccc2)cc1`, the zone of inhibition at 2000 µg/mL turned out to be 15.3 mm.

As for `COc1ccc(-c2nn(-c3ccccc3)cc2-c2cc(C)nn2-c2ccccc2)cc1`, the zone of inhibition at 2000 µg/mL turned out to be 15.3 mm.

Take `CC(=O)/C(Br)=C/c1cn(-c2ccccc2)nc1-c1ccccc1`: the zone of inhibition at 2000 µg/mL came to 15.3 mm.

Take `COc1ccc(-c2nn(-c3ccccc3)cc2/C=C(\Br)C(C)=O)cc1`: the zone of inhibition at 2000 µg/mL came to 15.6 mm.

`Cc1ccc(-c2nn(-c3ccccc3)cc2-c2cc(C)nn2-c2ccccc2)cc1`: the zone of inhibition at 2000 µg/mL amounted to 14.6 mm.

With `CC(=O)/C(Br)=C/c1cn(-c2ccc([N+](=O)[O-])cc2)nc1-c1ccccc1`, the zone of inhibition at 2000 µg/mL came out at 19.3 mm.

Consider `CC(=O)/C(Br)=C/c1cn(-c2ccccc2)nc1-c1ccc(F)cc1`, for which the zone of inhibition at 2000 µg/mL came out at 20.6 mm.

As for `Cc1cc(-c2cn(-c3ccccc3)nc2-c2ccc(F)cc2)n(-c2ccccc2)n1`, the zone of inhibition at 2000 µg/mL worked out at 15 mm.

For orientation: MIC means the smallest concentration in the dilution series that meets the test's criterion for growth inhibition. The low end stands for greater potency, the high end for weaker potency.

Source of the values: ChEMBL document CHEMBL3044634, “Synthesis and evaluation of antibacterial and antifungal activities of new (Z)-3-bromo-4-(1,3-diaryl-1H-pyrazol-4-yl)but-3-en-2-ones and 4-(3-methyl-1-phenyl-1H-pyrazol-5-yl)-1,3-diaryl-1H-pyrazoles” (2013).
